# Laboratory results taken from ChEMBL document CHEMBL1143229, “PB183, a sigma receptor ligand, as a potential PET probe for the imaging of prostate adenocarcinoma” (Bioorg Med Chem Lett, 2008).
# Key:
# [1] = Selectivity for sigma 2 receptor over sigma 1 receptor
# [2] = Cytotoxicity against mouse TRAMP cells; format: functional, cell-based
# [3] = Displacement of [3H]DTG from mouse sigma-2 receptor in TRAMP cell membrane; format: cell membranes
# [4] = Apparent permeability from apical to basolateral side of human Caco-2 cell membrane at pH 7.4 after 21 days; format: ADME, cell-based; conditions: Caco-2, pH 7.4
# [5] = Antiproliferative activity against mouse TRAMP cells; format: functional, cell-based
# [6] = target: Sigma non-opioid intracellular receptor 1 (Mus musculus, UniProt O55242); assay: Displacement of (+)-[3H]pentazocine from mouse sigma 1 receptor in TRAMP cell membrane; format: cell membranes
# Sequence of Sigma non-opioid intracellular receptor 1 (O55242 whole entry): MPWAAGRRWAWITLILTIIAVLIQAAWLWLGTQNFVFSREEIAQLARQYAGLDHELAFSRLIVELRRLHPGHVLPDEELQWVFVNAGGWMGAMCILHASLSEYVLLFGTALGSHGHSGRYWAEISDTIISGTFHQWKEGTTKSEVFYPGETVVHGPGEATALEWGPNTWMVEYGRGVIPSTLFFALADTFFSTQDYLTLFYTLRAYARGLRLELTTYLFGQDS
Selectivity ratio [1],Papp A→B [4] [×10⁻⁶ cm/s],Ki [6] [µM],SMILES,EC50 [2] [µM],Ki [3] [µM],EC50 [5] [µM]
40,–,–,COc1cccc2c1CCCC2CCCN1CCN(C2CCCCC2)CC1 (stereo unspecified),–,–,–
–,6.3,0.0065,COc1cccc2c(CCCN3CCN(C4CCCCC4)CC3)cccc12,26.6,0.0005,16.9
